Assay results reported in paper PMC8693659 (RSC Advances, 2021).
pIC50: −log10 of the molar value.

Biological target: SYK (Homo sapiens, UniProt P43405)
Experiment: In vitro kinase inhibition assay
Type: biochemical
Conditions: for remained SYK activities: inhibitor at 5 μM

pIC50	remained SYK activities [%]	SMILES
5.49	44.7 ± 3.3	Cc1coc2c1C(=O)C(=O)c1c-2ccc2c1CCCC2(C)C [TanIIA, tanshinoneIIA]
5.76	37.0 ± 2.3	Cc1coc2c1C(=O)C(=O)c1c-2ccc2c(C)cccc12 [TanI, tanshinone I]
